Active and inactive are the calls of the source. The rule behind the calls is not given here.
Test system: C13
Assay: Growth inhibition of cisplatin-resistant human C13 cells at 5 uM after 72 hrs by flow-cytometric analysis
Format: functional, cell-based

## O=c1[nH]cc(F)c(=O)[nH]1
  growth inhibition (GI): Active
